How the values were obtained:
[1] = Hepatic tolerability in rats (plasma AST, ALT, bilirubin); type: in vivo; conditions: i.p., NO-paracetamol 1.4 g/Kg or paracetamol 1.16 g/Kg, plasma 6 hours after administration, % of control group (100%)
Method: Groups of No. 10 rats have been treated i.p. with NO-paracetamol (1.4 g/Kg i.p.) or with paracetamol (1.16 g/Kg) or with the carrier (0.9% w/v NaCl containing 20% v/v di tween-20) (control group).
After 6 hours from the administration, the animals have been sacrificed, the blood has been collected and the plasma analyzed to determine the aspartate aminotransferase (AST) and alanine aminotransferase (ALT) and bilirubin concentrations. The results are reported in Table 2 and have been expressed in pecentage with respect to the values obtained in the control group (100%).

[2] = test system: TGFβ1 production in cellular chondrocyte cultures; assay: Stimulation of TGFβ1 production in chondrocyte cultures (CCL-64 growth inhibition bioassay of conditioned medium); type: cell-based; conditions: calf chondrocyte primary cultures, compound 10^−5 M, 24 hours; untreated control = 100
Method: The primary cultures have been kept in a DMEM culture medium (Dulbecco's modified Eagle medium) (high glucose) containing bovine fetal serum (10% vol.) and antibiotics at 37° C. and in air/CO2 atmosphere (95%/5% vol.) until reaching the culture confluence. A cell sample is kept as a control and not treated with the tested compounds.
At the end the cells have been washed 3 times with a medium free from serum and added with BSA (bovine serum albumin, 200 μg/ml) for 5, 30 and 60 minutes respectively and then incubated in a medium devoid of serum (1 ml) for further 6 hours. The conditioned medium has been collected, centrifuged and kept at −70° C. until the use.
Before the experiment, 0.5 ml of cellular culture supernatant have been acidified with HCl (0.1 ml, 1 N) and incubated at room temperature for 10 min, then neutralized with NaOH/HEPES (0.1 ml NaOH 1.2N/0.5 M).
CCL-64 cellular cultures lines in a proliferative state have been prepared as described in Jennings J. C., J. Cell. Physiol.
At the twentieth hour ^3H-timidine (0.5 μCi/ml), a cellular proliferation marker, which is incorporated in the DNA of the new cells has been added to the cultures. The cultures have then been incubated for 4 hours.
At the end the cells have been cold fixed (5° C.) with trichloroacetic acid 5% v/v, washed with the same solution and dissolved in NaOH (0.1 N). […] From the amount of incorporated timidine it is shown the amount of TGF-β1. The data reported in Table 1 are expressed in percentage of TGFβ1 produced in the samples treated with the tested compounds, compared with the untreated control.

[3] = test system: IL-6 release in mouse spleen lymphocytes; assay: IL-6 release in mouse spleen lymphocytes (in vitro, ELISA); type: cell-based; conditions: 10 μg/ml endotoxin, compound 50 μM, 24 hours, placebo = 100
Method: (§1) Spleen lymphocytes were prepared as it follows. Mice were killed by an overdose of ether, and spleens were collected and maintained in a sterile RPMI medium (Sigma-Aldrich) containing 0.5% (vol/vol) L-glutamine and 0.5% (vol/vol) sterile endotoxin-free fetal calf serum (FCS). The spleens were opened and the content (whole cells) collected and diluted with RPMI.
(§2) After repeated washings, cells were suspended in 10 ml of RPMI containing 1% (vol/vol) streptomycin and 1% (vol/vol) penicillin. The suspension was then incubated at 37° C. for 24 hours, in an O2/CO2 atmosphere (95%/5% v/v). Monocytes were eliminated by adhesion, and lysis of red cells was obtained by suspension in a solution 0.15 mol/liter NH4Cl and 1 mmol/liter KHCO3. The resulting lymphocytes were resuspended in RPMI-FCS, incubated for 30 minutes at 37° C. with anti-FAS, anti-FASL, or anti-IL2 receptor monoclonal antibodies, and then washed twice with RPMI-FCS. Cells were then incubated with the FITC-conjugated secondary antibody for 30 mins at 4° C., washed twice, and resuspended in PBS/formaldehyde (0.5%). Control samples were treated with the FITC-conjugated secondary antibody only. Stained cells were analysed on a flow cytofluorimeter. Cells were gated using forward vs side scatter to exclude dead cells and debris.
(§3) Cells were transferred in plate and then 10 μg/ml endotoxin and each of the following compounds at a concentration of 50 μM added: • Placebo (no compound added); • Flurbiprofen; • NO-Flurbiprofen; the compound was prepared as described in ex. F1, above; • Indomethacin; • NO-indomethacin; the compound was prepared as described in the example on page 45 of WO 98/09948; • then it was incubated for 24 hours • IL-6 and TGF-β released in cell supernatant was measured by ELISA assay, taking as 100% release that of placebo group.

[4] = test system: TGF-β release in mouse spleen lymphocytes; assay: TGF-β release in mouse spleen lymphocytes (in vitro, ELISA); type: cell-based; conditions: 10 μg/ml endotoxin, compound 50 μM, 24 hours, placebo = 100
Method: as §1, §2, §3

human chondrocytes = assay: Cell proliferation of TNFα-treated human chondrocytes ([3H]-thymidine incorporation); type: cell-based; conditions: TNFα 80 ng/ml, compound 100 μM, 24 hours, control without TNFα = 100, vehicle + TNFα = 50
Method: (§4) Human chondrocytes were isolated by collagenase digestion from knee cartilage collected from patients undergoing knee replacement surgery. Only primary culture was used to avoid phenotype change of human chondrocytes. TNFα (80 ng/ml) was added to all but control cells. Test compounds were dissolved at a concentration 0.02% (w/v) in DMSO (vehicle).
(§5) The test compounds were incubated with cells at a 100 μM concentration for 24 hours.
Cell proliferation was determined by measuring [^3H]-thymidine incorporated into newly synthesized DNA. Cell viability was assessed by MTS assay kit.

[5] = test system: proteoglycan synthesis in human chondrocytes; assay: Proteoglycan synthesis in TNFα-treated human chondrocytes ([35S]-sulfate incorporation); type: cell-based; conditions: TNFα 80 ng/ml, compound 100 μM, 24 hours, control without TNFα = 100, vehicle + TNFα = 22
Method: as §4, §5
Proteoglycan synthesis was determined by [^35S]-sulfate incorporation. Cells and supernatant were extracted with 4M guanidinium chloride and purified by Sephadex colums chromatography. The amount of [^35S]-sulfate was measured by liquid scintillation counter. Results were normalized by the amount of Dna in the sample and expressed as CPM/μg DNA (CPM=count per minute).

type II collagen mRNA = assay: Type II collagen mRNA steady-state levels in human articular chondrocytes; type: cell-based; conditions: human articular chondrocytes in hypoxia (5% v/v O2), with or without IL-1β, compound 10^−5M, 48 h
Method: The steady-state levels of mRNA for type II collagen and TGF-β type II receptor (TβRII) was evaluated in human articular chondrocytes (HAC), cultured in hypoxia (5% v/v O2). The cells were treated or not with interleukin-1β (IL-1β) an agent favouring OA pathology, and NO-NSAIDs, or the corresponding NSAIDs at 10^−5M for 48 h.

[6] = test system: IL-6 release in human monocytes; assay: IL-6 release in human monocytes (ex-vivo study after oral subacute treatment); conditions: healthy subjects, 100 mg twice a day oral for seven days; monocytes 4 hours after last treatment, 10 μg/ml endotoxin 24 hours, ELISA; placebo = 100
Method: Twenty-four healthy subjects of both sexes were enrolled and randomised into three groups of 8 subjects each. Each group was administered as it follows: • placebo: vehicle (0.5% aqueous suspension of carboxymethyl cellulose); • flurbiprofen: 100 mg twice a day; • NO-flurbiprofen: 100 mg twice a day; the compound was prepared as described in example F1. The treatment lasted seven consecutive days (oral subacute treatment).
Monocytes from whole blood samples obtained before and 4 hours after the last treatment were prepared. Monocytes were extracted by positive selection using paramagnetic beads loaded with anti-CD11 antibody. Cells were then incubated with 10 μg/ml endotoxin for 24 hours, and IL-6 released in cell supernatant measured by ELISA assay.
Results are given as % in the confront of IL-6 release obtained in the placebo group.

Structure (SMILES) | % of produced TGFβ1 [2] [%] | IL-6 release % in the confront of placebo [3] [%] | TGF-β release % in the confront of placebo [4] [%] | Proteoglycan synthesis % in the confront of control [5] [%] | further results
CC(=O)Nc1ccc(O)cc1 [Paracetamol] |  |  |  |  | ALT [1]: 171%; AST [1]: 330%; Bilirubin [1]: 200%
CC(=O)Oc1ccccc1C(=O)O [Aspirin] | 150 |  |  |  | 
COc1ccc2c(c1)c(CC(=O)O)c(C)n2C(=O)c1ccc(Cl)cc1 [Indomethacin] |  | 90 | 70 |  | 
COc1ccc2c(c1)c(CC(=O)Oc1cccc(CO[N+](=O)[O-])c1)c(C)n2C(=O)c1ccc(Cl)cc1 [NO-indomethacin, 1-(4-Chlorobenzoyl)-5-methoxy-2-methyl-1H-indole-3-acetic acid 3-(nitrooxymethyl)phenyl ester] |  | 20 | 130 |  | 
CC(=O)Nc1ccc(OC(=O)CCCO[N+](=O)[O-])cc1 [NO-Paracetamol, 4-nitrooxybutanoic acid 4-acetylaminophenylester] | 350 |  |  |  | AST [1]: 160%; Bilirubin [1]: 136%
CC(C)Cc1ccc(C(C)C(=O)O)cc1 (stereo not drawn) [Ibuprofen] |  |  |  | 24 | Cell proliferation % in the confront of control (human chondrocytes): 48%
CC(=O)Oc1ccccc1C(=O)Oc1cccc(CO[N+](=O)[O-])c1 [NO-Aspirin, 2-acetyloxybenzoic acid 3-nitrooxymethyl phenyl ester] | 600 |  |  |  | 
CC(C(=O)OCCCCO[N+](=O)[O-])c1ccc(-c2ccccc2)c(F)c1 (stereo not drawn) [NO-Flurbiprofen, 2-fluoro-alpha-methyl[1,1′-biphenyl]-4-acetic acid 4-nitrooxybutylester] | 650 | 10 | 150 | 70 | Increase of type II collagen mRNA levels (type II collagen mRNA): more than 100%
CC(C(=O)O)c1ccc(-c2ccccc2)c(F)c1 (stereo not drawn) [Flurbiprofen] | 120 | 100 | 115 | 26 | IL-6 release % in the confront of placebo [6]: 100%; Cell proliferation % in the confront of control (human chondrocytes): 53%; Increase of type II collagen mRNA levels (type II collagen mRNA): no significant effect
O=C(Cc1ccccc1Nc1c(Cl)cccc1Cl)OCCCCO[N+](=O)[O-] [NO-Diclofenac, 2-[(2,6-dichlorophenyl)amino]benzenacetic acid 4-nitrooxybutyl ester] | 550 |  |  |  | 
